Reference: ChEMBL document CHEMBL2202978, “Synthesis and antiviral activity of novel HCV NS3 protease inhibitors with P4 capping groups” (Bioorg Med Chem Lett, 2012)

What was measured:
Hepatitis C virus [1] = experiment: Antiviral activity against HCV subtype 1b expressing NS3/4A A156S mutant protease infected in ET cells after 72 hrs; type: functional, organism-based, Hepacivirus hominis; conditions: genotype 1b
[2] = Inhibition of HCV subtype 1a NS3/4A protease (Ac-DE-Dap(QXL520)-EE-Abu-psi-[COO]-ASC(5-FAMsp)-NH2 as substrate by FRET analysis; design: species or system Hepatitis C virus subtype 1a
Hepatitis C virus [3] = experiment: Antiviral activity against HCV subtype 1b expressing NS3/4A A156T mutant protease infected in ET cells after 72 hrs; type: functional, organism-based, Hepacivirus hominis; conditions: genotype 1b
Hepatitis C virus [4] = experiment: Antiviral activity against HCV subtype 1b expressing NS3/4A D168V mutant protease infected in ET cells after 72 hrs; type: functional, organism-based, Hepacivirus hominis; conditions: genotype 1b
Hepatitis C virus [5] = experiment: Antiviral activity against HCV subtype 1b expressing wild type NS3/4A protease infected in ET cells after 72 hrs; type: functional, organism-based, Hepacivirus hominis; conditions: genotype 1b
Hepatitis C virus [6] = experiment: Antiviral activity against HCV subtype 1b expressing NS3/4A A156V mutant protease infected in ET cells after 72 hrs; type: functional, organism-based, Hepacivirus hominis; conditions: genotype 1b
Hepatitis C virus [7] = experiment: Antiviral activity against HCV subtype 1b expressing NS3/4A R115K mutant protease infected in ET cells after 72 hrs; type: functional, organism-based, Hepacivirus hominis; conditions: genotype 1b
Hepatitis C virus [8] = experiment: Antiviral activity against HCV subtype 1b expressing NS3/4A D168A mutant protease infected in ET cells after 72 hrs; type: functional, organism-based, Hepacivirus hominis; conditions: genotype 1b
Hepatitis C virus [9] = experiment: Antiviral activity against HCV subtype 1b infected in human hepatoma cells; type: functional, organism-based, Hepacivirus hominis; conditions: genotype 1b
Hepatitis C virus [10] = experiment: Antiviral activity against HCV subtype 1a infected in human hepatoma cells; type: functional, organism-based, Hepacivirus hominis
[11] = AUC (0 to infinity) in Sprague-Dawley rat at 5 mg/kg, po; type: ADME, organism-based; design: time infinity, dose 5 mg/kg, route oral; conditions: plasma
[12] = Clearance in Sprague-Dawley rat at 1 mg/kg, iv; type: ADME, organism-based; design: dose 1 mg/kg, route intravenous; conditions: in vivo
[13] = Terminal half life in Sprague-Dawley rat at 5 mg/kg, po and 1 mg/kg, iv; type: ADME, organism-based; conditions: in vivo, read-out: beta t1/2 (converted)
[14] = Oral bioavailability in Sprague-Dawley rat at 5 mg/kg; type: ADME, organism-based; conditions: in vivo
[15] = AUC in Sprague-Dawley rat at 1 mg/kg, iv; type: ADME, organism-based; design: dose 1 mg/kg, route intravenous; conditions: plasma
[16] = Drug absorption in Sprague-Dawley rat portal vein at 5 mg/kg, po; type: ADME, organism-based; design: dose 5 mg/kg, route oral; conditions: read-out: Drug absorption

Row | SMILES | EC50 (Hepatitis C virus [1]) [nM] | IC50 [2] [nM] | EC50 (Hepatitis C virus [3]) [nM] | EC50 (Hepatitis C virus [4]) [nM] | EC50 (Hepatitis C virus [5]) [nM] | EC50 (Hepatitis C virus [6]) [nM] | EC50 (Hepatitis C virus [7]) [nM] | EC50 (Hepatitis C virus [8]) [nM] | EC50 (Hepatitis C virus [9]) [nM] | EC50 (Hepatitis C virus [10]) [nM] | AUC(0-inf) [11] [ng·h/mL] | clearance [12] [mL/min/kg] | half-life [13] [h] | bioavailability [14] [%] | AUC [15] [ng·h/mL] | Fa [16] [%]
1 | CCC[C@H](NC(=O)[C@@H]1[C@H]2CCC[C@H]2CN1C(=O)[C@@H](NC(=O)[C@@H](NC(=O)c1cnccn1)C1CCCCC1)C(C)(C)C)C(=O)C(=O)NC1CC1 [TELAPREVIR] | 883 | 500 | 1140 | 207 | 34 | 1960 | 1780 | 638 |  |  |  |  |  |  |  | 
2 | COc1ccc2c(O[C@@H]3C[C@H]4C(=O)N[C@]5(C(=O)NS(=O)(=O)C6CC6)C[C@H]5/C=C\CCCCC[C@H](NC(=O)C(=O)N5CCCCC5)C(=O)N4C3)cc(-c3nc(C4CC4)cs3)nc2c1C | 0.1 | 1 | 5.5 | 151 | 0.02 | 6.2 | 14 | 49 | 0.4 | 0.5 |  |  |  |  |  | 
3 | CC(C)(C)OC(=O)N[C@H]1CCCCC/C=C\[C@@H]2C[C@@]2(C(=O)NS(=O)(=O)C2CC2)NC(=O)[C@@H]2C[C@@H](OC(=O)N3Cc4cccc(F)c4C3)CN2C1=O [DANOPREVIR] | 2 | 0.7 | 10 | 26 | 0.2 | 8 | 82 | 39 |  |  |  |  |  |  |  | 
4 | COc1ccc2c(O[C@@H]3C[C@H]4C(=O)N[C@]5(C(=O)NS(=O)(=O)C6CC6)C[C@H]5/C=C\CCCCC[C@H](N)C(=O)N4C3)cc(-c3nc(C4CC4)cs3)nc2c1C | 1.2 | 1.3 | 20 | 1660 | 1 | 41 | 155 | 229 | 1 | 0.7 |  |  |  |  |  | 
5 | COc1ccc2c(O[C@@H]3C[C@H]4C(=O)N[C@]5(C(=O)NS(=O)(=O)C6CC6)C[C@H]5/C=C\CCCCC[C@H](N5CCOC5=O)C(=O)N4C3)cc(-c3nc(C4CC4)cs3)nc2c1C | 3.5 | 2.5 | 107 | 3020 | 27 | 151 | 977 | 1820 | 14 | 17 |  |  |  |  |  | 
6 | COc1ccc2c(O[C@@H]3C[C@H]4C(=O)N[C@]5(C(=O)NS(=O)(=O)C6CC6)C[C@H]5/C=C\CCCCC[C@H](N5CCCC5=O)C(=O)N4C3)cc(-c3nc(C4CC4)cs3)nc2c1C | 6.2 | 20 | 219 | 3980 | 8.7 | 646 | 794 | 1350 | 24 | 42 |  |  |  |  |  | 
7 | COc1ccc2c(O[C@@H]3C[C@H]4C(=O)N[C@]5(C(=O)NS(=O)(=O)C6CC6)C[C@H]5/C=C\CCCCC[C@H](NC(=O)N(C)C)C(=O)N4C3)cc(-c3nc(C4CC4)cs3)nc2c1C | 0.05 | 0.5 | 0.5 | 27 | 0.03 | 2 | 0.5 | 14 | 0.2 | 0.3 |  |  |  |  |  | 
8 | CCN(CC)C(=O)N[C@H]1CCCCC/C=C\[C@@H]2C[C@@]2(C(=O)NS(=O)(=O)C2CC2)NC(=O)[C@@H]2C[C@@H](Oc3cc(-c4nc(C5CC5)cs4)nc4c(C)c(OC)ccc34)CN2C1=O | 0.1 | 0.6 | 1 | 51 | 0.03 | 5.5 | 4 | 19 | 0.2 | 0.3 | 48.7 | 152 | 1.4 | 7.4 | 127 | 19
9 | COc1ccc2c(O[C@@H]3C[C@H]4C(=O)N[C@]5(C(=O)NS(=O)(=O)C6CC6)C[C@H]5/C=C\CCCCC[C@H](NC(=O)C(=O)N5CCCC5)C(=O)N4C3)cc(-c3nc(C4CC4)cs3)nc2c1C |  | 1.3 |  |  |  |  |  |  | 0.4 | 0.4 |  |  |  |  |  | 
10 | COc1ccc2c(O[C@@H]3C[C@H]4C(=O)N[C@]5(C(=O)NS(=O)(=O)C6CC6)C[C@H]5/C=C\CCCCN(C)C(=O)[C@@H]4C3)cc(-c3nc(C(C)C)cs3)nc2c1C [SIMEPREVIR] | 0.3 | 10 | 86 | 140 | 1 | 344 | 56 | 149 | 1 | 2 |  |  |  |  |  | 
11 | COc1ccc2c(O[C@@H]3C[C@H]4C(=O)N[C@]5(C(=O)NS(=O)(=O)C6CC6)C[C@H]5/C=C\CCCCC[C@H](NC(=O)C(=O)NC5CCCCC5)C(=O)N4C3)cc(-c3nc(C4CC4)cs3)nc2c1C |  | 6.3 |  |  |  |  |  |  | 0.5 | 0.5 |  |  |  |  |  | 
12 | CCOC(=O)C(=O)N[C@H]1CCCCC/C=C\[C@@H]2C[C@@]2(C(=O)NS(=O)(=O)C2CC2)NC(=O)[C@@H]2C[C@@H](Oc3cc(-c4nc(C5CC5)cs4)nc4c(C)c(OC)ccc34)CN2C1=O |  | 1 |  |  |  |  |  |  | 1.2 | 2.6 |  |  |  |  |  | 
13 | COc1ccc2c(O[C@@H]3C[C@H]4C(=O)N[C@]5(C(=O)NS(=O)(=O)C6CC6)C[C@H]5/C=C\CCCCC[C@H](NC(=O)C5(OC)CCCC5)C(=O)N4C3)cc(-c3nc(C4CC4)cs3)nc2c1C | 0.09 | 4 | 13 | 234 | 0.05 | 49 | 25 | 50 | 0.3 | 0.3 |  |  |  |  |  | 
14 | COc1ccc2c(O[C@@H]3C[C@H]4C(=O)N[C@]5(C(=O)NS(=O)(=O)C6CC6)C[C@H]5/C=C\CCCCC[C@H](N/C(=N\C#N)NC(C)(C)C)C(=O)N4C3)cc(-c3nc(C4CC4)cs3)nc2c1C | 0.5 | 2.5 | 27 | 832 | 0.3 | 78 | 123 | 331 | 0.7 | 2.5 |  |  |  |  |  | 
15 | COc1ccc2c(O[C@@H]3C[C@H]4C(=O)N[C@]5(C(=O)NS(=O)(=O)C6CC6)C[C@H]5/C=C\CCCCC[C@H](NC(=O)C(C)=O)C(=O)N4C3)cc(-c3nc(C4CC4)cs3)nc2c1C |  | 0.8 |  |  |  |  |  |  | 0.6 | 0.5 |  |  |  |  |  | 
16 | COc1ccc2c(O[C@@H]3C[C@H]4C(=O)N[C@]5(C(=O)NS(=O)(=O)C6CC6)C[C@H]5/C=C\CCCCC[C@H](NC(=O)C5(OC)CC5)C(=O)N4C3)cc(-c3nc(C4CC4)cs3)nc2c1C |  | 1.6 |  |  |  |  |  |  | 0.2 | 0.2 |  |  |  |  |  | 
17 | COc1ccc2c(O[C@@H]3C[C@H]4C(=O)N[C@]5(C(=O)NS(=O)(=O)C6CC6)C[C@H]5/C=C\CCCCC[C@H](NC(=O)C(=O)NC(C)(C)C)C(=O)N4C3)cc(-c3nc(C4CC4)cs3)nc2c1C |  | 4 |  |  |  |  |  |  | 0.7 | 0.6 |  |  |  |  |  | 
